Values of other authors in patent US8034838B2, “Composition and method for the treatment of neurological disorders” (priority 2008, dated 2011).

Legend:
[1] = after administration
β-secretase = β-secretase (Homo sapiens, UniProt P56817)
Chain of β-secretase (P56817 46-501): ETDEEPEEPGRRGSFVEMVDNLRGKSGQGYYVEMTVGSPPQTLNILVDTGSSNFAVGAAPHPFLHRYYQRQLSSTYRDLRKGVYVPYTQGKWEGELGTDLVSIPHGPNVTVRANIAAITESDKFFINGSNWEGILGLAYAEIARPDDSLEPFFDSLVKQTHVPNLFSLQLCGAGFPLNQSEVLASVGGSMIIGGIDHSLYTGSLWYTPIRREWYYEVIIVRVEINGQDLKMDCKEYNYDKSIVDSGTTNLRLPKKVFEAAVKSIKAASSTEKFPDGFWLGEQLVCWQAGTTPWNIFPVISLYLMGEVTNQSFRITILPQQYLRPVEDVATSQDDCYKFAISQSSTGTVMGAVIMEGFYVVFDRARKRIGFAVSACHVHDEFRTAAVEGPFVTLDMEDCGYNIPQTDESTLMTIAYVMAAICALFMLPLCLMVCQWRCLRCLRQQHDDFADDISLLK

O=c1c(O)c(-c2cc(O)c(O)c(O)c2)oc2cc(O)cc(O)c12 [myricetin, Myricetin]
time to cross the blood brain barrier [1]: ≤ 30 min | regulation of γ-secretase (γ-secretase): down-regulates | regulation of β-secretase (β-secretase): down-regulates | regulation of α-secretase (α-secretase): up-regulates
